Source: US6984619B1, “Method for protection against tumor metastasis formation” (Arch Development Corporation, priority 1999, dated 2006)
Entries after “also recorded” stand apart in the source; their conditions may differ.

Key:
[1] = biological target: T1, MMP-2 (Homo sapiens, UniProt P08253); assay: Gelatin zymography of medium from treated U251 glioma cells, MMP-2; type: cell-based; conditions: 24 h; for reduction of MMP-2 activity/secretion: 10 mM
T1 construct: Medium was isolated at the indicated times, centrifuged at 1000 rpm for 5 min to remove debris; endogenous in cells; host or cells: U251 human glioma cells (serum-free conditioned medium)
T1 sequence (P08253 110-660): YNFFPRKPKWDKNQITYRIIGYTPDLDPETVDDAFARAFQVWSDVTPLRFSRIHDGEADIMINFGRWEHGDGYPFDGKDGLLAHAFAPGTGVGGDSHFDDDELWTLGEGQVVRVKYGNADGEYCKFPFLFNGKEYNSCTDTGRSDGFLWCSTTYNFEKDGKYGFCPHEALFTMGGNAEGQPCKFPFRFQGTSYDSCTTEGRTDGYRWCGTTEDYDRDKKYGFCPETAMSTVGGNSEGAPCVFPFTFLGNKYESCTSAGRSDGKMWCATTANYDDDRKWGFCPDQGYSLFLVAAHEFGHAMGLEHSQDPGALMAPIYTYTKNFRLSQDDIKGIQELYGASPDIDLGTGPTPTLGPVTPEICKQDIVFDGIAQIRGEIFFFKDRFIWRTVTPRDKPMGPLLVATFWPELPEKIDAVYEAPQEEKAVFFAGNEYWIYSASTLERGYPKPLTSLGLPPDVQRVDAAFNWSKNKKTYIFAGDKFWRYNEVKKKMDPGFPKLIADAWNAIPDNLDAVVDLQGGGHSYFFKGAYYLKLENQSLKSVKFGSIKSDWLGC
Experimental: (§1) U251 Glioma Cells were grown to confluence in 6-well plates. Medium was removed, the cells washed twice with 37° C. PBS, and serum-free medium added. The cells were treated as follows: • Control—24 h, 48 h 72 h • 40 μM SH—24 h, 48 h 72 h (continuous exposure) • 10 ng/ml TNFα—24 h, 48 h, 72 h (continuous exposure). Medium was isolated at the indicated times, centrifuged at 1000 rpm for 5 min to remove debris, and stored at −80° C. until use. Protein was quantitated using the Bradford method. 252 ng of protein was loaded on 10% zymogram (gelatin) gels (Novex, San Diego, Calif.) and electrophoresed at 125 volts for 90 min in Tris-Glycine SDS buffer. After running, the gels were incubated in zymogram renaturing buffer (100 ml) for 30 min at room temperature with gentle agitation. The buffer was removed and fresh zymogram developing buffer (100 ml) added and the gels incubated at 37° C. overnight with gentle agitation. The following day the gels were stained with 0.5% coomassie blue R-250 for 30 min, and destained. Areas of protease activity show up as clear bands. This assay will detect MMP-2 and MMP-9.
(§2) Same protocol as above. Treatment conditions were as follows: • Control—24 h • 4 mM SH—24 h (continuous exposure) • 10 mM L-NAC—24 h (continuous exposure) • 10 mM L-NAC—24 h (continuous exposure) • 10 mM Captopril—24 h (continuous exposure) • 50 mM EDTA—24 h (chelator) • 4 mM SH+50 mM EDTA—24 h • 10 mM L-NAC+50 mM EDTA—24 h • 10 mM D-NAC+50 mM EDTA—24 h • 10 mM Captopril+50 mM EDTA—24 h • 40 μM SH—24 h • 10 ng/ml TNFα—24 h

[2] = biological target: T2, MMP-9 (Homo sapiens, UniProt P14780); assay: Gelatin zymography of medium from treated U251 glioma cells, MMP-9; type: cell-based; conditions: 24 h; for reduction of MMP-9 activity/secretion: 10 mM
T2 construct: Medium was isolated at the indicated times, centrifuged at 1000 rpm for 5 min to remove debris; endogenous in cells; host or cells: U251 human glioma cells (serum-free conditioned medium)
T2 sequence (P14780 94-707): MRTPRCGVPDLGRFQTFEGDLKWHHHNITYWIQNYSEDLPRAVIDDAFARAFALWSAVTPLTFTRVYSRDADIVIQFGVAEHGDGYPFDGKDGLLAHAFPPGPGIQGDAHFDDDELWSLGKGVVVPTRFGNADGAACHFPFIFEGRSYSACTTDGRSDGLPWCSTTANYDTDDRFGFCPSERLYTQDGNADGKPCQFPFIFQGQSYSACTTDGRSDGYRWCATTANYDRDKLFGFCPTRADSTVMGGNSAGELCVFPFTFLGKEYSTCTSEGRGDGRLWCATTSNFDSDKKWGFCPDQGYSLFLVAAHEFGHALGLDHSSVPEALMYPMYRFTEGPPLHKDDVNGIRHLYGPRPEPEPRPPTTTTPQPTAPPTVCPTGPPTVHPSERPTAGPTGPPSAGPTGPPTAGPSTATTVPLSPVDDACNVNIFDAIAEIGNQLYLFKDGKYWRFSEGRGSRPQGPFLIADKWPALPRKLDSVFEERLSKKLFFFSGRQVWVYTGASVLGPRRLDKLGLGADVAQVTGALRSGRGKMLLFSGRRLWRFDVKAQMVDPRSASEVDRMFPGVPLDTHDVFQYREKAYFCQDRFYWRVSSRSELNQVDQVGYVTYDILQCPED
Experimental: as §1, §2

| Compound | reduction of MMP-2 activity/secretion [1] | reduction of MMP-9 activity/secretion [2] | inhibition of MMP-2 activity/secretion ([1]; 50 mM EDTA) | inhibition of MMP-9 activity/secretion ([2]; 50 mM EDTA) |
| --- | --- | --- | --- | --- |
| C[C@H](CS)C(=O)N1CCC[C@H]1C(=O)O [Captopril] | completely inhibited | completely inhibited |  |  |
| CC(=O)N[C@H](CS)C(=O)O [D-NAC] | 74% | 85% |  |  |
| O=C(O)CN(CCN(CC(=O)O)CC(=O)O)CC(=O)O [EDTA] |  |  | completely inhibiting; also recorded: completely inhibited; also recorded: completely blocked | completely inhibiting; also recorded: completely inhibited; also recorded: completely blocked |
